Laboratory results: US20080188508A1, “Methods and Therapies for Potentiating a Therapeutic Action of an Opioid Receptor Agonist and Inhibiting and/or Reversing Tolerance to Opioid Receptor Agonists” (priority 2007, published 2008)

Tests used:
Sprague Dawley rats = test system: Sprague Dawley rats
Protocol: Experiments were performed in accordance with guidelines of the Canadian Council on Animal Care using protocols approved by the University Animal Care Committee. Adult male Sprague Dawley rats (200-250 grams) (Charles River, Quebec) were housed in separate cages and maintained on a 12 hour light/12 hour dark cycle with access to food and water ad libitum.
Animals were anaesthetized with halothane (4%) and implanted with an indwelling intrathecal catheter. A small puncture was made in the atlanto-occipital membrane and a polythene catheter (PE-10; 7.5 cm long) inserted caudally so that the tip rested on the lumbar enlargement of the spinal cord. The rostral end was exteriorized to facilitate drug administration. Surgical wounds were closed with sutures and animals allowed to recover for one week. Animals showing signs of forelimb or hindlimb paralysis were excluded from experiments. Drugs were injected in a 10 μl volume (i.t.) followed by 10 μl of 0.9% saline to flush the catheter.
Response to an acute thermal nociceptive stimulus was assessed in rats using the tail-flick test. Radiant heat was applied to the dorsal surface of the tail using an analgesic meter and the time latency for removal of the tail from the stimulus was recorded. […] A cutoff of 10 seconds was used in both studies to prevent tissue injury.
Response to an acute mechanical nociceptive stimulus was assessed using the paw-pressure test. Using an air-filled inverted syringe, pressure was gradually applied to the dorsal surface of the hindpaw until a paw withdrawal response was observed and the value (mmHg) recorded. A cut-off of 300 mmHg was used to prevent tissue injury.
Tail-flick and paw-pressure nociceptive tests were performed both before and 30 minutes after drug injection. […] Nociceptive testing was performed both before and 30 minutes after each injection.
The day following ED50 testing, spinal cords from animals were processed for CGRP immunohistochemical staining as described infra.
Tail-flick and paw-pressure values were converted to a maximum percentage effect (M.P.E.): M.P.E.=100×[post-drug response−baseline response]/[maximum response−baseline response]. Data in the figures are expressed as mean±s.e.mean. ED50 values were determined using a non-linear regression analysis (Prism 2, GraphPad Software Inc., San Diego, Calif., USA). Statistical significance (p<0.05) was determined using a one-way analysis of variance (ANOVA) followed by a Student Newman-Keuls post hoc test for multiple comparisons between groups.

[1] = dose of AM-251 used in these experiments; Trang et al. Pain 2006; cited from earlier work
[2] = test system: CGRP-immunoreactive neurons in adult rat dorsal root ganglion cultures
Protocol: In this method, rats were decapitated and DRGs removed aseptically from the cervical, thoracic, lumbar, and sacral regions of the spinal cord. […] DRGs were minced, digested with 0.25% collagenase (Calbiochem) in Ham's F12 Medium (GIBCO/BRL) for 90 minutes at 37° C., and then trypsinized (0.25%) (GIBCO/BRL) for 1.5 hours at 37° C. Next, the tissues were triturated with a 19 gauge syringe in Dulbecco's Modified Eagle Medium (DMEM, GIBCO/BRL) containing 1% HEPES buffer, penicillin/streptomycin (1:100), and 10% Fetal Bovine Serum (GIBCO/BRL). Samples were then centrifuged at 500 g for 10 minutes. The resulting pellet was resuspended with DMEM and filtered through a cell strainer (70 μm, Falcon). DRG cells were seeded in a poly-D-lysine coated 96-well culture plate (Falcon) at a density of 5×10^4 cells/well and incubated at 37° C. with 5% CO2 and 95% O2 for the duration of the experiment. […]
To examine the effects of drug treatment on CGRP-immunoreactivity in the cultured DRG cells, the number of CGRP immunopositive cells was counted using an inverted phase microscope (Olympus CX2). […] The field of view in which CGRP-IR cells were counted measured 1 mm^2. […]
For the cultured DRG studies, the mean±s.e.mean of CGRP-immunopositive cells was obtained from 4 wells per treatment group in each of 3 separate cell cultures. Data are expressed as a percent of saline control wells. […]

[3] = i.t. morphine 15 μg, first injection, both tail-flick and paw-pressure test

Cc1c(C(=O)NN2CCCCC2)nn(-c2ccc(Cl)cc2Cl)c1-c1ccc(I)cc1 [AM-251, 1-(2,4-dichlorophenyl)-5-(4-iodophenyl)-4-methyl-N-1-piperidinyl-1H-pyrazole-3-carboxamide]
effect on basal nociceptive responses (Sprague Dawley rats; AM-251 3.2 μg administered alone over 5 days): did not have an effect
morphine ED50 value versus chronic saline treatment (Sprague Dawley rats; AM-251 3.2 μg alone for 5 days): did not significantly alter
effect on basal nociceptive response (Sprague Dawley rats; AM-251 3.2 μg in the absence of morphine on days 6-10): no effect
effect on the increase in morphine ED50 values (Sprague Dawley rats; AM-251 (1.6 μg or 3.2 μg) co-administered with i.t. morphine for 5 days): completely blocked the increase in ED50 values
effect on the increase in morphine ED50 value (Sprague Dawley rats; acute paradigm, co-treatment of AM-251 with morphine): suppressed the increase in ED50 value
morphine ED50 value versus saline-only control (Sprague Dawley rats; acute paradigm, drug without the other drug: single morphine injection then saline, or AM-251 3.2 μg alone): did not change
effect on baseline antinociceptive responses (Sprague Dawley rats; i.t. injections of AM-251 alone, acute paradigm, either test): no effect
morphine ED50 value versus saline-only animals (Sprague Dawley rats; morphine days 1-5 discontinued, then saline (row morphine) or AM-251 alone (row AM-251) on days 6-10): comparable to saline-only
effect on anandamide-induced antinociception [1]: selectively block
influence on acute morphine-induced analgesia [1]: no influence

CN1CC[C@]23c4c5ccc(O)c4O[C@H]2[C@@H](O)C=C[C@H]3[C@H]1C5.O=S(=O)(O)O [morphine, Morphine sulphate]
antinociceptive effect on daily injection for 10 days (Sprague Dawley rats; daily i.t. morphine (3.2 μg as printed) for 10 days, by day 5): progressive decline in morphine antinociception to baseline levels
time by which antinociceptive response returned to baseline (Sprague Dawley rats; [3]): ≤ 90 min
time of maximal antinociceptive response post-injection (Sprague Dawley rats; [3]): 30 min
increase in number of CGRP-immunopositive neurons compared to vehicle-treated controls ([2]; chronic morphine (20 μM) treatment for 5-days): approximately 57%

C=CCN1CC[C@]23c4c5ccc(O)c4O[C@H]2C(=O)CC[C@@]3(O)[C@H]1C5 [naloxone]
effect on the morphine-induced increase in CGRP-immunopositive neurons ([2]; pre-treatment with naloxone 10 μM, morphine 20 μM): blocked
